Source: US12084709B2, “Screening method” (Mars, Incorporated, priority 2018, dated 2024)

Tested on: Porphyromonas macacae JN713359
Assay: mBB fluorescent C-S lyase / VSC production method with whole bacteria
Assay type: cell-based
Conditions: 0.12% CHX treatment; relative to control
Protocol: The C-S lyase activity was measured in order to quantitate VSC production by the bacteria. This was conducted by using monobromobiname, a fluorescent probe for thiol. The bacteria were washed and resuspended in Tris buffer (pH 8.5) at OD=1.0. The 250 μL reaction mix contained 4 mM benzylcysteine, 100 μM monobromobimane, 10 μM pyridoxal 5′-phosphate, 50 μL of the bacteria suspension and was made up to 250 μL with tris buffer (pH 8.5). The mix was incubated anaerobically for 45 minutes at 37° C. The C-S lyase activities were determined based on fluorescence at 490 nm (em) upon excitation at 385 nm (ex). All measurements were performed in biological duplicate with each repeated in technical triplicates, creating total of 6 data points per strain. Blank measurements (containing buffer instead of crude extract) were used to correct the values derived from the substrate. The standard curve was measured using Benzyl mercaptan at 8-128 μM. The protein concentration of the bacteria suspension was determined by means of a commercially available BCA kit in accordance with the manufacturer's method. The specific C-S lyase activity was calculated by dividing the increase in fluorescence equivalent to Benzyl mercaptan concentration by the total protein content of the suspension in mg and expressed as unit which was defined as “nM Benzyl mercaptan release/μg protein/minute”. […]

SMILES: [H]/N=C(\N/C(=N/[H])NCCCCCCNC(=N)NC(=N)Nc1ccc(Cl)cc1)Nc1ccc(Cl)cc1 [CHX, Chlorhexidine, reference compound]
- quantity of VSC produced as the control: 25%
